This passage reports social interaction time results from EP0976747A2, “Use of 5HT-1F receptor antagonists for treating anxiety disorders” (ELI LILLY AND COMPANY, priority 1998, dated 2000).

This assay has as its system male Wister rats. Briefly: Social interaction test of experimental anxiety. The following applies: 20 mg/kg intraperitoneal, tested 1 hour after dosing, 5 minutes observation, compared to baseline, significance at p<0.01. Format: in vivo. How it is done: The procedure for this assay is summarized below.
All experiments were performed on male Wister rats (Harlan laboratories, 275-300 gm). The rats were individually housed in a temperature controlled room (72°F) on a 12 hour day/night cycle. The rats were provided food and water ad libitum.
Approximately 40 mg of the test compound was weighed into a 20 mL glass vial. To this solid were added 80µL of lactic acid (85%). The mixture was sonicated for 2 minutes and then 4mL of distilled water was added in lmL increments. Sonication of this mixture was continued until all of the solid had dissolved. Following sonication, the pH of the mixture was raised by the addition of dilute aqueous sodium hydroxide until the mixture reached a pH of about 5.5.
Each rat was weighed and the test compound administered by intraperitoneal injection at 20 mg/kg of body weight. […]
Experimental anxiety was measured by a social interaction test. […] A video camera was fixed above the social interaction box and all behavioral tests were recorded. […] The amount of time that the rat which received test compound spent interacting (i.e. grooming, sniffing, crawling upon) with the other rat was recorded. […]
Social interaction data was analyzed as total interaction time in seconds and the raw scores were compared between baseline and treatment. […]

Each structure is given as a SMILES string.

With `O[C@H](COc1ccc2ccccc2c1)CN1CCC(O)(c2cnc3ccccc3c2)CC1` [Example 37, 1-((2S)-hydroxy-3-(naphth-2-yloxy)prop-1-yl)-4-hydroxy-4-(quinolin-3-yl)piperidine], the social interaction time entry is reported as “significantly increase social interaction time as compared to baseline”.
